Measurements taken from PMC11225352, “A multicenter, randomized, double-blind, placebo-controlled ascending dose study to evaluate the safety, tolerability, pharmacokinetics (PK) and pharmacodynamic (PD) effects of Posiphen in subjects with early Alzheimer’s Disease” (Alzheimer's Research & Therapy, 2024).
Read-outs that look alike come from different tables or passages of the source.

Tests used:
APP = system: APP; design: method as in PMID 36641607; conditions: mild AD (n = 14), 80 mg once per day, up to 27 days; not significant; cited from earlier work
sAPPβ = experiment: CSF sAPPβ level, screening to day 21 (MSD immunoassay); type: in vivo, human; conditions: ANOVA with age and sex as covariates; p = 0.16
Protocol: (§1) For biochemical analysis to derive data for SILK, ^13C6-leucine was analyzed in plasma and CSF by mass spectrometry, and Aβ peptides in CSF were analyzed by immunoprecipitation-mass spectrometry (IP-MS) as previously described, by C2N Diagnostics (St Louis, MO). CSF levels of sAPPα, sAPPβ, Aβ38, 40 and 42 were analyzed by the ADCS Biomarker Core using Mesoscale Discovery (MSD) electrochemiluminescent assays (Mesoscale Discovery, Rockville, MD). Levels of Posiphen and its N1 and N8 metabolites in plasma and CSF were measured by Charles River Laboratories (Montreal, CA) by high-performance liquid chromatographic mass spectrometry, with use of deuterated Posiphen (procured by Charles River Laboratories) as an internal standard.
(§2) Changes in CSF biomarkers from the screening to confinement (sample at time of placement of catheter) were compared in the treatment and placebo groups by ANOVA, with models that included age, sex and baseline MMSE, and further analysis stratified by treatment dose. A similar approach was taken to analyze changes in MMSE, ADAS-cog and NPI. Data were analyzed using R (version 4.2.2).

[1] = Cognitive and behavioral outcomes (ADAS-cog12, MMSE, NPI); type: in vivo, human
Source text: The screening visit included history, examination, review of medical records and medications, vital signs, physical and neurological examination, cognitive testing with the MMSE and Logical Memory test (Wechsler Memory Scale-revised), EKG, blood draw for routine laboratory tests, lumbar puncture and if needed, brain MRI. If eligible, participants underwent a baseline visit, with cognitive assessment using the MMSE and ADAS-cog12, behavioral assessments, Research Satisfaction Survey, safety assessments, and review of concurrent medications and adverse events, and they received a supply of the study drug (or placebo), which they started the day after the baseline visit. A telephone assessment was done at day 14 after baseline, to assess adverse events, concomitant medication changes and remind participants/study partners about the confinement visit. A pre-confinement visit took place 1–3 days before the confinement visit, following treatment for 20 days, and included physical and neurological examination, cognitive and behavioral assessments (see below), safety assessments (including clinical safety labs), and a review of compliance, concurrent medications and adverse events. The study drug or placebo was continued until the day before the confinement visit.
(§3) Safety measures included adverse events, vital signs, EKG and laboratory tests. The Mini-Mental State Examination (MMSE), Alzheimer’s Disease Assessment Scale-cognitive (ADAS-cog12) and Neuropsychiatric Inventory (NPI) were used as cognitive and behavioral outcomes,.
as §2

[2] = design: method as in PMID 22791904; conditions: cited from earlier work
[3] = Safety and tolerability (adverse events, vital signs, EKG, laboratory tests); type: in vivo, human
Protocol: as §3
(§4) A prespecified Statistical Analysis Plan (SAP) was prepared and finalized before the database lock occurred. For safety and tolerability, frequencies of adverse events, serious adverse events and laboratory abnormalities between the participants across the three groups are compared, using Pearson’s χ [2] or ANOVA, as appropriate. Plasma concentration-time data are analyzed by non-compartmental methods using WinNonlin version 6.2.1 or greater. Calculations are based on the actual sampling times recorded during the study. For PK analysis, only the subjects receiving Posiphen are included.

[4] = CSF pharmacokinetics of Posiphen and its N1 and N8 metabolites (lumbar catheter sampling, LC-MS); type: in vivo, human; conditions: for mean levels averaged over 24 h of CSF sampling: after 21–23 days, early AD; for Tmax: median (min-max); for AUC(0-t) / Cmax: 60 mg; for AUC(0-t): read-out: AUC0 − 24; for Cmax: read-out: Cmax
Source text: For the confinement visit, subjects arrived in the early morning after an overnight fast. Physical and neurological examination, vital signs, and assessment of compliance were completed and blood was drawn for safety laboratory tests. An intravenous line and a second line for repeated blood draw were placed. To sample CSF, the intrathecal space was accessed using a Perifix 18G Touhy Epidural Needle (90 mm), and a Polyamide Epidural Catheter (20G Closed Tip) was inserted and fixed in place by an Anesthesiologist. Participants received the last day’s dosing of study drug or placebo. Initial blood and CSF samples were drawn, intravenous infusion of ^13C6-leucine was started and continued for 9 h, during which time subjects received a low leucine diet. Blood and CSF were sampled every 2 h for 36 h. After 36 h, intravenous lines and the CSF catheter were removed, vital signs were measured, physical exam performed, and blood and CSF were sent for routine laboratory studies. […] If postural headache was present, a blood patch was performed. Once stable, participants underwent a brief exam and vital sign check and were discharged. They received a phone call 24 h after discharge to check on their wellbeing.
as §1, §4
Noncompartmental pharmacokinetic parameters were estimated using Phoenix WinNonlin v8.3 (Certara, Princeton, NJ). Levels and parameters (Cmax, AUC) of posiphen, n-1 and n-8 metabolites were highly correlated in plasma and CSF. For the BID and TID doses the expected post dose plasma peaks appeared attenuated.

[5] = human, oral, 60 mg BID (n = 5), geometric mean (% geometric CV)
[6] = human, oral, 60 mg daily (n = 4; N1: only one participant measurable), geometric mean (% geometric CV)

Structure (SMILES): CN1CC[C@]2(C)c3cc(OC(=O)Nc4ccccc4)ccc3N(C)[C@H]12 [Posiphen]
- CSF APP before and after treatment (APP): small reduction
- CSF sAPPβ, Treatment difference (Posiphen – placebo) (sAPPβ): 47.9 (31.6) p = 0.16 pg/mL
- NPI, mean change from baseline to pre-confinement ([1]; Posiphen (n = 11), mITT, baseline 8.36 ± 9.52): -0.45 ± 7.01
- MMSE, Pre-confinement ([1]; Posiphen (n = 11), mITT, baseline 24.36 ± 2.8): 24.18 ± 2.52
- ADAS-Cog12, Pre-confinement ([1]; Posiphen (n = 11), mITT, baseline 25.73 ± 8.76): 25.18 ± 5.33
- ADAS-cog, MMSE or NPI total scores, change from baseline to pre-confinement visit ([1]; Posiphen or placebo groups): no significant changes
- MMSE, Mean change ([1]; baseline to pre-confinement, Posiphen (n = 11), placebo 1.14 ± 2.12): -0.18 ± 2.09
- ADAS-Cog12, Mean change ([1]; baseline to pre-confinement, Posiphen (n = 11), placebo -1.57 ± 5.19): -0.55 ± 6.04
- ADAS-cog change, t ([1]; contrast 60 mg – placebo, multiple linear regression (age, sex, APOE genotype, baseline score, arm), p 0.68): 0.42
- MMSE change, t ([1]; contrast 60 mg – placebo, multiple linear regression, p 0.006): -3.32
- NPI change, t ([1]; contrast 60 mg – placebo, multiple linear regression, p 0.51): 0.68
- NPI change, t ([1]; contrast 120 mg - placebo, multiple linear regression, p 0.02): 2.73
- MMSE change, t ([1]; contrast 120 mg - placebo, multiple linear regression, p 0.24): 1.2
- ADAS-cog change, t ([1]; contrast 120 mg - placebo, multiple linear regression, p 0.30): 1.1
- ADAS-cog change, t ([1]; contrast 180 mg - placebo, multiple linear regression, p 0.77): 029
- NPI change, t ([1]; contrast 180 mg - placebo, multiple linear regression, p 0.91): 0.12
- NPI, Treatment difference (Posiphen – placebo) ([1]; mITT, p = 0.11): 7.10 ± 4.07 p = 0.11
- ADAS-Cog12, Treatment difference (Posiphen – placebo) ([1]; mITT, p = 0.32): 3.00 ± 2.94 p = 0.32
- MMSE, Treatment difference (Posiphen – placebo) ([1]; mITT, p= 0.23): -1.6 ± 1.28 p= 0.23
- safety and tolerability, multiple dose studies ([2]; 20, 40 or 60 mg given four times per day): safe and well-tolerated
- gastro-intestinal side effects ([2]; Single Ascending Dose study, daily dose of 160 mg or higher): high rate of gastro-intestinal side effects
- plasma half-life ([2]; oral, up to four times per day): short
- ECG parameters ([3]; Posiphen vs placebo groups): no significant changes or differences
- laboratory safety parameters ([3]; Posiphen vs placebo groups): no clinically significant changes
- safety and tolerability ([3]; early AD, 60 mg once, twice or three times per day for 21–23 days, 11 received Posiphen, 7 placebo): safe and was generally well tolerated
- adverse events (AEs), frequency vs placebo ([3]; early AD, 21–23 days): did not differ in frequency between the groups
- vital signs ([3]; early AD, 21–23 days): no significant changes
- mean levels averaged over 24 h of CSF sampling ([4]; 60 mg (n = 5)): 0.46 ± 0.30 ng/mL
- mean levels averaged over 24 h of CSF sampling ([4]; 60 mg BID (n = 5)): 0.73 ± 0.53 ng/mL
- Tmax ([4]; 60 mg BID (n = 5)): 2 (2–20) hr
- mean levels averaged over 24 h of CSF sampling ([4]; 60 mg TID (n = 1)): 0.71 ng/mL
- Tmax ([4]; human, oral, 60 mg daily (n = 4; N1: only one participant measurable), read-out: Tmax): 2 h
- AUC(0-t) [4, 5]: 17.9 ng·h/mL
- Cmax [4, 5]: 2.21 ng/mL
- AUC(0-t) ([4]; human, oral, 60 mg TID (n = 1)): 25 ng·h/mL
- Cmax ([4]; human, oral, 60 mg TID (n = 1)): 2.44 ng/mL
- AUC(0-t) [4, 6]: 12.3 ng·h/mL
- Cmax [4, 6]: 2.85 ng/mL
